Experimental data taken from patent publication US5686626A, “1,3-dihydro-1-amino-2H-indol-2-ones” (Hoechst Marion Roussel, Inc., priority 1995, dated 1997).
Like-named read-outs stand apart in the source and are kept apart here.

Key:
[1] = Dark Avoidance Assay (scopolamine induced memory deficit reversal); type: in vivo, mice; settings: Mus musculus, read-out: % of Animals With Scopolamine Induced Memory Deficit Reversal; for responders at 1.25 mg/kg: dose 1.25 mg/kg of body wt; for responders at 0.3 mg/kg: dose 0.3 mg/kg of body wt; for responders at 3 mg/kg: dose 3.0 mg/kg of body wt; for responders at 0.63 mg/kg: dose 0.63 mg/kg of body wt
Method: The compounds of the present invention are also useful in the treatment of various memory dysfunctions characterized by decreased cholinergic function such as Alzheimer's Disease.
In this assay, mice are tested for their ability to remember an unpleasant stimulus for a period of 24 hours. A mouse is placed in a chamber that contains a dark compartment; a strong incandescent light drives it to the dark compartment, where an electric shock is administered through metal plates on the floor. The animal is removed from the testing apparatus and tested again, 24 hours later, for the ability to remember the electric shock.
If scopolamine, an anticholinergic that is known to cause memory impairment, is administered before an animal's initial exposure to the test chambers, the animal re-enters the dark compartment shortly after being placed in the test chamber 24 hours later. The effect of scopolamine is blocked by an active test compound, resulting in a greater interval before re-entry into the dark compartment.
The results for an active compound are expressed as the percent of a group of animals in which the effect of scopolamine is blocked, as manifested by an increased interval between being placed in the test chamber and re-entering the dark compartment. Presented in Table 2 is the activity of some of the compounds of the invention in this assay.

[2] = phenyl-para-quinone writhing assay in mice (analgesia); type: in vivo; settings: for ED50: Mus musculus, sc, read-out: ED50 of Writhing (subcutaneous dose at which 50% of the phenyl-para-quinone induced writhing is inhibited)
[3] = supramaximal electroshock (SES) assay (anticonvulsant activity); type: in vivo, male mouse (Charles River, CD-1); settings: Mus musculus, ip, 0.5 h; male mice, i.p., 30 minute pretreat; read-out: ED50 (anticonvulsant, protection from extensor tonus)
Method: The compounds of the invention are also useful as anticonvulsants due to their anticonvulsant activity in mammals. Anticonvulsant activity is measured in the male mouse using the supramaximal electroshock (SES) assay described in Arch. Int. Pharmacodyn. 92:97-107, 1952. In this procedure, groups of male mice (Charles River, CD-1, 18-30 gm) are used. Drugs are prepared using distilled water and, if insoluble, a surfactant is added. Control animals receive vehicle. Drugs are routinely administered interperitoneally (i.p.) The dosage volume is 10 ml/kg. A primary screen is given a 30 minute pretreat. The animals' eyes are placed across the output terminals of an A.C. shocker that delivers 206 volts rms for 300 msec. Electrode paste coats the animals' eyes at the point of contact with the terminals. […] Protection is expressed as normalized percent inhibition relative to vehicle control.

[4] = mice, dose 1.0 mg/kg of body wt, retest after 24 hours

## CC[C@@H]1C(=O)OC[C@@H]1Cc1cncn1C [Pilocarpine, reference compound]
[1]; mice, retest after 24 hours
  responders at 1.25 mg/kg: 19%

## CCCN(c1ccncc1)N1C(=O)C2(CCN(C)CC2)c2ccccc21 [1'Methyl-1-(propyl-4-pyridinylamino)spiro-[3H-indole-3,4'-piperidin]-2(1 H)-one]
[1]; 24 h
  responders at 1 mg/kg: 20%

## CC1C(=O)N(Nc2ccncc2F)c2ccccc21 (stereo not drawn) [1,3-Dihydro-1-[(3-fluoro-4-pyridinyl)amino]-3-methyl-2H-indol-2-one hemifumarate]
[1]; mice, retest after 24 hours
  responders at 0.3 mg/kg: 27%
  responders at 3 mg/kg: 20%

## O=C(O)c1ccccc1O [Salicylic Acid, reference compound]
[2]
  ED50: 3.28 mg/kg

## CCCN(c1ccncc1F)N1C(=O)C(C)(C)c2ccccc21 [1,3-dihydro-3,3-dimethyl-1-[4-(3-fluoropyridinyl)propylamino]2H-indol-2-one]
[1]; mice, retest after 24 hours
  responders at 0.3 mg/kg: 21%
[1]; [4]
  responders at 1 mg/kg: 27%

## NN1C(=O)C(Cc2ccncc2)(Cc2ccncc2)c2ccccc21 [1-Amino-3,3-bis(4-pyridinylmethyl)-1,3-dihydro-2H-indol-2-one]
[1]; mice, retest after 24 hours
  responders at 0.3 mg/kg: 21%

## Nc1c2c(nc3ccccc13)CCCC2 [Tacrine, reference compound]
[1]; mice, retest after 24 hours
  responders at 0.63 mg/kg: 13%

## CCCN(c1ccncc1)N1C(=O)C2(Cc3ccccc3C2)c2ccccc21 [1,3-dihydro-1'-(propyl-4-pyridinylamino)spiro[2H-indene-2,3'-[3H]indol]-2'(1'H)-one]
[1]; mice, retest after 24 hours
  responders at 3 mg/kg: 25%

## O=C1Cc2ccccc2N1Nc1ccncc1 [1,3-Dihydro-1-(4-pyridinylamino)-2H-indol-2-one]
[2]
  ED50: 0.69 mg/kg
[1]; mice, dose 0.31 mg/kg of body wt, retest after 24 hours
  responders at 0.31 mg/kg: 27%
[1]; mice, retest after 24 hours
  responders at 0.63 mg/kg: 27%
  responders at 1.25 mg/kg: 27%

## O=C1Cc2ccccc2N1Nc1ccncc1F [1,3-Dihydro-1-(3-fluoro-4-pyridinylamino)-2H-indol-2-one]
[1]; [4]
  responders at 1 mg/kg: 27%
[1]; mice, retest after 24 hours
  responders at 3 mg/kg: 27%

## CCCN(c1ccncc1)N1C(=O)C(C)(C)c2ccccc21 [1,3-Dihydro-3,3-dimethyl-1-(propyl-4-pyridinylamino)-2H-indol-2-one]
[3]
  ED50: 30.7 mg/kg
[1]; mice, retest after 24 hours
  responders at 0.3 mg/kg: 20%

## CCCN(c1ccncc1)N1C(=O)Cc2ccccc21 [1,3-Dihydro-1-(propyl-4-pyridinylamino)-2H-indol-2-one]
[3]
  ED50: 15.9 mg/kg
[2]; 20 mg/kg, s.c.
  % Inhibition of Writhing (% decrease in writhing at a given dose): -58%
[1]; mice, retest after 24 hours
  responders at 1.25 mg/kg: 27%

## CCCN(c1ccncc1F)N1C(=O)Cc2ccccc21 [1,3-Dihydro-1-[(3-fluoro-4-pyridinyl)-propylamino]-2H-indol-2-one]
[1]; mice, retest after 24 hours
  responders at 0.3 mg/kg: 20%
  responders at 3 mg/kg: 20%

## CCC1(c2ccccc2)C(=O)NC(=O)NC1=O [Phenobarbital, reference compound]
[3]
  ED50: 8.4 mg/kg
